Assay results reported in ChEMBL document CHEMBL1126535, “Angiotensin II receptor antagonists containing a phenylpyridine element” (Bioorg Med Chem Lett, 1993).

Key:
[1] = target: T1, Type-2 angiotensin II receptor (Rattus norvegicus, UniProt P35351); assay: In vitro binding affinity towards Angiotensin II receptor, type 2 determined as its ability to displace 125I-Sarl,Ile8-AII from the receptor expressed in rat midbrain membrane.; format: cell membranes
T1 sequence (P35351 whole entry): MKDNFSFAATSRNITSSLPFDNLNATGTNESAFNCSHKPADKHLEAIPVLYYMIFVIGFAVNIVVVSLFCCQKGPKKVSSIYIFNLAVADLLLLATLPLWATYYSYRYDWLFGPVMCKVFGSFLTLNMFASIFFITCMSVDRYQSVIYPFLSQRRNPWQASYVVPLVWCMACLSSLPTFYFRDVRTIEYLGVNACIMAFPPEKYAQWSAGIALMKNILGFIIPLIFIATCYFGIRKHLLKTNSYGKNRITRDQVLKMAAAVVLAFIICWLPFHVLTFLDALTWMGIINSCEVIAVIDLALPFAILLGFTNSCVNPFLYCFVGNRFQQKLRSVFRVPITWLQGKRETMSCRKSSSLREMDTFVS

[2] = target: T2, Type-1 angiotensin II receptor (Oryctolagus cuniculus, UniProt P34976); assay: In vitro binding affinity towards Angiotensin II type 1-AT1 receptor determined as its ability to displace 125I-Sarl,Ile8-AII from the receptor expressed in rabbit aorta membrane.; format: cell membranes
T2 sequence (P34976 whole entry): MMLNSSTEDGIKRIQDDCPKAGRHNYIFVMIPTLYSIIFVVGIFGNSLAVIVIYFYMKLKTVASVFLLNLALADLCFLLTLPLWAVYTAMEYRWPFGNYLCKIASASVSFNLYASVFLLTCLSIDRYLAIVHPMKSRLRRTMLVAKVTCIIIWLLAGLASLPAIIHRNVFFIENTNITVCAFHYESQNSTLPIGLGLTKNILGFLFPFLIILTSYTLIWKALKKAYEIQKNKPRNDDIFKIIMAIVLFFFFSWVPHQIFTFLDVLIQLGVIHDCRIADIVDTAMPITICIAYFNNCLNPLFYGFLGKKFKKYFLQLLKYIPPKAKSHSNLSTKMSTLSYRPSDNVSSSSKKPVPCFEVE

Rattus norvegicus = assay: In vivo potency for the inhibition of pressor response in normotensive rats (i.v.); format: functional

Row | Structure (SMILES) | IC50 [1] [nM] | IC50 [2] [nM] | Activity (Rattus norvegicus) [mg/kg]
1 | CCCc1nc2c(C)ccnc2n1Cc1ccc(-c2cccnc2-c2nn[nH]n2)cc1 | > 20000 | 60 | 
2 | CCCc1nc2c(C)ccnc2n1Cc1ccc(-c2ccccc2-c2nn[nH]n2)cc1 |  | 1 | 
3 | CCc1nc2c(C)cc(C)nc2n1Cc1ccc(-c2ccccc2-c2nnn[nH]2)cc1 [L-158809] | > 20000 |  | 
4 | CCCc1nc2c(C)ccnc2n1Cc1ccc(-c2ncccc2-c2nn[nH]n2)cc1 | > 20000 |  | 
5 | CCCc1nc2c(C)ccnc2n1Cc1ccc(-c2ccncc2-c2nn[nH]n2)cc1 | > 20000 | 4 | 0.1
